Source: ChEMBL document CHEMBL1857833, “Screening and optimization of specific chemical series against human African Trypanosomiasis (HAT)”
Converted amounts (≈) assume the structure as drawn. “And” between values parts separate entries of the source, which are not always exact repeats. Equal entries are not always repeated.

Tests used:
Leishmania donovani = assay: DNDI: Inhibition of formation of Leishmania donovani (strain MHOM/ET/67/L82) axenic amastigotes, in vitro.; format: functional, organism-based
[1] = DNDI: half life in human liver microsomes at a concentration of 10uM; format: ADME, Microsome
[2] = test system: Trypanosoma brucei rhodesiense; assay: DNDI: Inhibition of Human African Trypanosomiasis (HAT), STIB 900, in vitro; format: functional, organism-based
[3] = DNDI: Cytotoxicity against L929 mouse fibroblasts, 72 hour.; format: toxicity, cell-based; conditions: mouse, L929 mouse fibroblasts
[4] = DNDI: Lipophilicity measured in Chromatographic hydrophobicity index (CHI) assay, pH 7.4; format: physicochemical; conditions: buffer
in vitro [5] = conditions: mouse
Description: (§1) DNDI: in vitro intrinsic clearance in mouse liver microsomes at a concentration of 1uM

[6] = mouse, microsomes, 1 µM
Description: as §1

Plasmodium falciparum = assay: DNDI: Inhibition of the malaria parasite Plasmodium falciparum, in vitro; format: functional, organism-based; conditions: K1
[7] = DNDI: Cytotoxicity against L-6 rat myoblasts from skeletal muscle cells; format: toxicity, cell-based, L6; conditions: L-6 rat skeletal muscle myoblasts
[8] = mouse, microsomes, 1 µM; remark: listed apart in the source
Description: (§2) DNDI: half life in mouse liver microsomes at a concentration of 1uM

[9] = DNDI: in vitro intrinsic clearance in mouse liver microsomes at a concentration of 10uM; format: ADME, Microsome; conditions: read-out: CLint in vitro
in vitro [10] = conditions: mouse, t (1 / 2)
Description: as §2

Trypanosoma cruzi = assay: DNDI: Inhibition of Chagas Disease parasite Trypanosoma cruzi (Tulahuen LacZ, Clone C4), in vitro.; format: functional, organism-based
[11] = DNDI: Solubility in phosphate buffered saline at pH7.4 measured by optical density (turbidimetry) at room temperature (OD-RT); format: physicochemical; conditions: pH 7.4
[12] = DNDI: in vitro intrinsic clearance in human liver microsomes at a concentration of 10uM; format: ADME, Microsome
[13] = DNDI: half life in mouse liver microsomes at a concentration of 10uM; format: ADME, Microsome
[14] = DNDI: Cytotoxicity against L929 mouse fibroblasts, CYTO-SP, 24 hour; format: toxicity, cell-based; conditions: mouse, L929 mouse fibroblasts
Trypanosoma brucei [15] = assay: DNDI: Inhibition of Human African Trypanosomiasis, Cross 22, in vitro; format: functional, organism-based
Trypanosoma brucei [16] = assay: DNDI: Inhibition of Human African Trypanosomiasis, SBRI 427, in vitro; format: functional, organism-based
[17] = DNDI: Solubility in phosphate buffered saline at pH7.4 measured by nephelometry at room temperature (NEPH-RT); format: physicochemical; conditions: pH 7.4
in vitro [18] = conditions: human, CLint in vitro
Description: DNDI: in vitro intrinsic clearance in human liver microsomes at a concentration of 1uM

Trypanosoma brucei [19] = assay: DNDI: Mean survival time in days (MSD) of mice after intraperitoneal injection of Human African Trypanosomiasis (HAT), EATRO 110, in vivo at 20 mg/kg/day for 4 days.; format: functional, Mus musculus
in vitro [20] = conditions: human, t (1 / 2)
Description: DNDI: half life in human liver microsomes at a concentration of 1uM

MDR1 (ABCB1) [21] = target: T1, MDR1 (ABCB1) (Homo sapiens, UniProt P08183); assay: DNDI: Efflux ratio for permeability from basolateral to apical side to apical to basolateral side of MDCK cells transfected with human MDR1; format: ADME, cell-based, Canis lupus familiaris; conditions: dog, MDCK-MDR1; read-out: Calculated Ratio
MDR1 (ABCB1) [22] = target: T1, MDR1 (ABCB1); assay: DNDI: Apparent permeability from apical to basolateral side of the MDCK cell transfected with human MDR1after 60 mins at a concentration of 3uM; format: ADME, cell-based, Canis lupus familiaris; conditions: dog, MDCK-MDR1
MDR1 (ABCB1) [23] = target: T1, MDR1 (ABCB1); assay: DNDI: % of compound recovered from apical to basolateral permeability assay in MDCK cells transfected with human MDR1 after 60 mins at a concentration of 3uM; format: ADME, cell-based, Canis lupus familiaris; conditions: dog
MDR1 (ABCB1) [24] = target: T1, MDR1 (ABCB1); assay: DNDI: % of compound recovered from apical to basolateral permeability assay in MDCK cells transfected with human MDR1 after 60 mins at a concentration of 3uM in the presence of GF120918; format: ADME, cell-based, Canis lupus familiaris; conditions: dog, MDCK-MDR1, with GF120918 (concentration not stated)
[25] = DNDI: half-life in mouse S9 microsomes at a concentration of 1uM; format: ADME, subcellular, Liver, S9 fraction
Trypanosoma brucei [26] = assay: DNDI: Mean survival time in days (MSD) of mice after intraperitoneal injection of Human African Trypanosomiasis (HAT), EATRO 110, in vivo at 5 mg/kg/day for 4 days.; format: functional, Mus musculus
[27] = DNDI: % of compound remaining in rat S9 microsomes at a concentration of 1uM; format: ADME, subcellular, Liver, S9 fraction
[28] = DNDI: % of compound remaining in mouse S9 microsomes at a concentration of 1uM after 60 mins; format: ADME, subcellular, Liver, S9 fraction
Trypanosoma brucei [29] = assay: DNDI: Inhibition of Human African Trypanosomiasis, EATRO 110, in vitro; format: functional, organism-based
[30] = Trypanosoma brucei, SBRI 427, read-out: IC50

T1 sequence (P08183 whole entry): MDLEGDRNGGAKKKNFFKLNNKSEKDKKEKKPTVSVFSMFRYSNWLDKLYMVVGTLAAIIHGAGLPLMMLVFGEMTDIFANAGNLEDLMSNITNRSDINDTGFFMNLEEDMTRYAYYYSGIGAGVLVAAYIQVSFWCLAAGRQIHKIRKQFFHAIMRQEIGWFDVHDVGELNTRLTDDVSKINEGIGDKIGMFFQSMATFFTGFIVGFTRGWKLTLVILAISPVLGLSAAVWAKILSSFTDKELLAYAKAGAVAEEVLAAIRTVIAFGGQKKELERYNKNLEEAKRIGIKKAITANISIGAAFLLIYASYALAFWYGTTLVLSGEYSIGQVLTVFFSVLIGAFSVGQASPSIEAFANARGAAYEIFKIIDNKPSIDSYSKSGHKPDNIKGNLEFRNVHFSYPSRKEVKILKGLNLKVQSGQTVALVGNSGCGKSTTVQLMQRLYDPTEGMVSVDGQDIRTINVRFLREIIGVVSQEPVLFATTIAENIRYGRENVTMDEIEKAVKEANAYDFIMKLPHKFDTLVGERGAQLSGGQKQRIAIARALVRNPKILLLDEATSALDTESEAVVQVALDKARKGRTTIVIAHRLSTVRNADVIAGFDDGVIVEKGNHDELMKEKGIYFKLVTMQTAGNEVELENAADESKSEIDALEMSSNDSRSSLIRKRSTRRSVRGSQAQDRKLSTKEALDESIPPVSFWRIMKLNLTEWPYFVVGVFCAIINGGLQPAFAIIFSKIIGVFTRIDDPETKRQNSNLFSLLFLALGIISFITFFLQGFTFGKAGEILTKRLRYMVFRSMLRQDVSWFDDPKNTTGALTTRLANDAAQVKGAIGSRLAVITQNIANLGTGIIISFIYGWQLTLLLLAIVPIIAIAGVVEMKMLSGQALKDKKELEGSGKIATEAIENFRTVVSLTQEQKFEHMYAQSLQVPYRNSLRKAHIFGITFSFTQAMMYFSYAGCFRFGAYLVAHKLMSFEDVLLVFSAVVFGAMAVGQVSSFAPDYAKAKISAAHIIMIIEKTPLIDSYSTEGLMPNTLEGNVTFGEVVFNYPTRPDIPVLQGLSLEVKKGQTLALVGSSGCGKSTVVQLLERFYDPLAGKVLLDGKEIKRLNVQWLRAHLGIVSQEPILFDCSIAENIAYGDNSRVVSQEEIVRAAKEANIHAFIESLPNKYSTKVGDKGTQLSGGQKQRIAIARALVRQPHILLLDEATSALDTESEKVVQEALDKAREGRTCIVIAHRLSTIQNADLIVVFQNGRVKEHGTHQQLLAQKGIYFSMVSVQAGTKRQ

SMILES	IC50 (Leishmania donovani) [µg/mL]	half-life at 10 µM [1] [h]	IC50 [2] [µg/mL]	IC50 at 72 h [3] [µg/mL]	chromatographic logD [4]	CLint in vitro [6]	IC50 (Plasmodium falciparum) [µg/mL]	IC50 [7] [µg/mL]	t (1 / 2) [8]	microsomal CLint at 10 µM [9] [µL/min/mg]	IC50 (Trypanosoma cruzi) [µg/mL]	solubility kinetic [11] [µM]	CLint in vitro [12] [µL/min/mg]	half-life at 10 µM [13] [h]	IC50 at 24 h [14] [µg/mL]	IC50 (Trypanosoma brucei [15]) [µg/mL]	IC50 (Trypanosoma brucei [16])	IC50 (Trypanosoma brucei [16]; [30]) [µg/mL]	solubility kinetic [17] [µM]	MSD (Trypanosoma brucei [19]) [days]	other results
CCCCCC(C)NCc1coc(-c2ccc(OCCCC)cc2)n1 (stereo not drawn)	4.92 (≈ 14.3 µM)	1.73	0.278 (≈ 0.807 µM)	1.54 (≈ 4.47 µM)	5.01	10 µL/min/mg	0.825 (≈ 2.39 µM)	2.66 (≈ 7.72 µM)	84 min	15	1.5 (≈ 4.35 µM)	1.6 (≈ 0.551 µg/mL)	28	3.12	> 50	0.36 (≈ 1.04 µM)	0.29 µg/mL and 0.22 µg/mL	0.38 (≈ 1.1 µM)			microsomal CLint at 1 µM (in vitro [5]; liver microsomes): 12 µL/min/mg; half-life at 1 µM (in vitro [10]; liver microsomes): 1.17 h
O/N=C(\Nc1ccccc1)c1ccccc1-c1ccccc1					4.32	352 µL/min/mg			2 min						36.9 (≈ 128 µM)			4.39 (≈ 15.2 µM)	25 (≈ 7.21 µg/mL)	4	microsomal CLint at 1 µM (in vitro [5]; liver microsomes): 338 µL/min/mg; microsomal CLint at 1 µM (in vitro [18]; liver microsomes): 8 µL/min/mg; half-life at 1 µM (in vitro [10]; liver microsomes): 0.05 h; half-life at 1 µM (in vitro [20]; liver microsomes): 1.87 h
CCCCCC(C)NCc1coc(-c2ccc(CCCC)cc2)n1 (stereo not drawn)	5.25 (≈ 16 µM)	1.62	0.186 (≈ 0.566 µM)	1.48 (≈ 4.51 µM)	5.51	11 µL/min/mg	0.647 (≈ 1.97 µM)	2.31 (≈ 7.03 µM)	81 min	16	2.8 (≈ 8.52 µM)	1.6 (≈ 0.526 µg/mL)	30	2.98	> 50	0.3 (≈ 0.913 µM)				3.4	microsomal CLint at 1 µM (in vitro [5]; microsomes): 12 µL/min/mg; half-life at 1 µM (in vitro [10]; microsomes): 1.22 h
Fc1cccc(-c2cc3nc(-c4ccccc4)cc(NCCCN4CCOCC4)n3n2)c1				> 10	> 5.2													5 (≈ 11.6 µM)	3 (≈ 1.29 µg/mL)		efflux ratio (MDR1 (ABCB1) [21]): 0.05; Papp A→B at 1 h, 3 µM (MDR1 (ABCB1) [22]): 3.26 ×10⁻⁶ cm/s; recovery at 1 h, 3 µM (MDR1 (ABCB1) [23]): 59%; recovery at 1 h, 3 µM (MDR1 (ABCB1) [24]): 51%; half-life at 1 µM [25]: 4.27 h
O/N=C(\NCC1CC1)c1ccccc1-c1ccccc1	32.3 (≈ 121 µM)	10.6	8.1 (≈ 30.4 µM)	> 10	4.04	93 µL/min/mg	3.14 (≈ 11.8 µM)	72.3 (≈ 271 µM)		117	> 30	> 200	5	0.417	> 50			1.15 (≈ 4.32 µM)	> 200	1	logD [4]: 3.96; half-life at 1 µM (in vitro [10]; microsomes): 0.15 h; MSD (Trypanosoma brucei [26]): 4 days
CCCCc1ccc(-c2nc(CNC3CCCCCC3)co2)cc1	10.1 (≈ 30.8 µM)		0.383 (≈ 1.17 µM)	1.23 (≈ 3.77 µM)	5.49		0.739 (≈ 2.26 µM)	2.85 (≈ 8.73 µM)			1.43 (≈ 4.38 µM)				> 50	0.4 (≈ 1.23 µM)	0.18 µg/mL and 0.33 µg/mL	0.36 (≈ 1.1 µM)	13 (≈ 4.24 µg/mL)	3.5	microsomal CLint at 1 µM (in vitro [18]; microsomes): 18 µL/min/mg; MSD (Trypanosoma brucei [26]): 4 days; half-life at 1 µM (in vitro [20]; microsomes): 0.8 h
Cc1cc(NCCN(C)C)n2nc(-c3cccc(F)c3)cc2n1				> 10	4.09													> 5	100 (≈ 31.3 µg/mL)		efflux ratio (MDR1 (ABCB1) [21]): 0.14; Papp A→B at 1 h, 3 µM (MDR1 (ABCB1) [22]): 46.6 ×10⁻⁶ cm/s; recovery at 1 h, 3 µM (MDR1 (ABCB1) [23]): 97%; recovery at 1 h, 3 µM (MDR1 (ABCB1) [24]): 108%; half-life at 1 µM [25]: 0.317 h
CC1(C)[C@H]2CC[C@@H](CNCc3coc(-c4ccc(-c5ccccc5)cc4)n3)[C@@H]1C2				< 3.13		25 µL/min/mg and 11 µL/min/mg			80 min and 34 min						17.6 (≈ 45.6 µM)	0.64 (≈ 1.66 µM)	0.28 µg/mL and 0.72 µg/mL and 0.58 µg/mL				
COc1cc(C)ccc1Oc1ncccc1/C(=N/O)NC1CCCCC1	> 90	2.57	57.9 (≈ 163 µM)	> 10	4	76 µL/min/mg	> 5	76.2 (≈ 214 µM)		76	> 30	25 (≈ 8.89 µg/mL)	19	0.633	> 50		0.15 µg/mL (≈ 0.422 µM)	0.25 (≈ 0.703 µM)	25 (≈ 8.89 µg/mL)	5.5	logD [4]: 4.04; remaining at 1 µM [27]: 0.111%; half-life at 1 µM (in vitro [10]; liver microsomes): 0.183 h; remaining at 1 h, 1 µM [28]: 18.3%; IC50 (Trypanosoma brucei [29]): 0.48 µg/mL (≈ 1.35 µM)
